We go through 10 compounds from EP0639183B1, “NITROGEN OXIDES OF AZA- AND DIAZA-ANTHRACENEDIONE DERIVATIVES, THEIR PREPARATION AND THEIR USE AS ANTITUMOR AGENTS” (BOEHRINGER MANNHEIM ITALIA S.P.A., priority 1991, dated 1992).

For data set [1], the system named is murine L 1210 leukemia. The note with it: cited from earlier work; for in vivo T/C: murine L 1210 leukemia.
Data set [2] concerns murine L 1210 leukemia. The note with it: cited from earlier work.
The next data set relates to Lovo/DX. Description: in vitro cytotoxic activity, MTT assay, resistant subline Lovo/DX. The note with it: for resistance index RI (ratio of the IC50 for the resistant cell line to the IC50 for the sensitive cell line): Lovo/DX versus Lovo. In kind it is cell-based, human. On the procedure: (§1) The evaluation of the "in vitro" cytotoxic activity of the compounds of the invention was performed using a human colon adenocarcinoma cell line (Lovo) isolated from a metastatic nodule and a subline with aquired resistance to a number of antitumor agents, among which doxorubicin, VP-16 and vincristine. […] Cancer, (1986), 54, 515). The compounds were tested according to the MTT assay (Mosman, T. "Rapid Colorimetric assay for cellular growth and survival: application to proliferation and cytotoxicity assay", J. Immunol. Methods, (1983), 65, 55-63; Green. L.M., "Rapid Colorimetric assay for cell viability; application to the quantitation of cytotoxic and growth inhibitory lymphokines", J. Immunol. Methods, (1984), 70, 257-268) in comparison with ametantrone and doxorubicin.
For orientation: Formazan colour is commonly taken as a measure of viable cells.

For data set [3] the following is noted: in animals; cited from earlier work.
For data set [4], the system named is human colon adenocarcinoma cell line (Lovo). Description: in vitro cytotoxic activity, MTT assay, Lovo cell line. It counts as cell-based. The conditions noted are these: 144 hours drug-exposure. The method, then:
as §1

The test system of another data set is P 388 MURINE LEUKEMIA
Description: P 388 murine leukemia model in vivo (iv/iv 1,4,7). The arrangement: species or system CD2Fl mice. On the procedure: Studies of the biological activity "in vivo" of representative compounds of the invention were performed using the P 388 and L 1210 murine leukemia models.
P 388 Murine leukemia cells were intravenously (iv) injected in CD2Fl mice. Treatment was initiated approximately 24 hours after tumor transplantation and dosages of the drug were administered iv according to preestablished protocols, usually at 3-day intervals. The studies were done over a 60 day period and the date of death for each animal was recorded. The % T/C was determined using the median survival time (MST) for each group according to the formula % T/C = [(MST treated)/(MST control)] x 100. [formula]

The test system of another data set is MURINE LEUKEMIA L1210. Description: L 1210 murine leukemia model in vivo (iv/iv 1,4,7). The arrangement: species or system CD2Fl mice. The method, then:
The antitumor activity of representative compounds of this invention was evaluated also in the L 1210 murine leukemia model.
L 1210 leukemia cells were intravenously (iv) injected in CD2Fl mice and treatment was initiated approximately 24 hours after tumor transplantation. Dosages of the drugs were administered iv according to preestablished protocols, usually at 3-day intervals. The studies were done over a 60-day period and the date of death for each animal was recorded. The % T/C was determined using the median survival time (MST) for each group according to the formula % T/C = [(MST treated)/(MST control)] x 100. [formula]

Where [5] appears, read: P 388, iv on days 1,4,7, Dose 2 mg/kg/day.
Setting [6] is: P 388, iv on days 1,4,7, Dose 3 mg/kg/day.
[7] abbreviates: P 388, iv on days 1,4,7, Dose 4 mg/kg/day.
The mark [8] stands for this setting: L1210, iv on days 1,4,7, Dose 2 mg/kg/day.
The mark [9] stands for this setting: L1210, iv on days 1,4,7, Dose 3 mg/kg/day.
Where [10] appears, read: P 388, iv on days 1,4,7, Dose 18 mg/kg/day.
Setting [11] is: P 388, iv on days 1,4,7, Dose 27 mg/kg/day.
Setting [12] is: L1210, iv on days 1,4,7, Dose 40 mg/kg/day.
[13] abbreviates: L1210, iv on days 1,4,7, Dose 60 mg/kg/day.

Molecules are shown by their SMILES. Converted amounts (≈) assume the structure as drawn. “And” between values parts separate entries of the source, which are not always exact repeats. Identical values can stand only once. Like-named read-outs stand apart in the source and are kept apart here.

Consider `CCN(CC)CCNc1ccc(NCCN(CC)CC)c2c1C(=O)c1cccnc1C2=O` [Compound 5b], for which, in the data set with murine L 1210 leukemia [1] (Dose 100 mg/kg), the “in vivo T/C” value was “toxic”. In addition, in the data set on murine L 1210 leukemia [2], the “in vitro ID50” value is 2.4 µg/mL.
For `CN(C)CCNc1ccc(NCCN(C)C)c2c1C(=O)c1cccnc1C2=O` [Compound 5a], in the data set with murine L 1210 leukemia [1] (as reported in table II), the “antitumor activity in vivo (in words)” value is “inactive in vivo”. In addition, the “in vivo T/C” value with murine L 1210 leukemia [1] (Dose 50 mg/kg) was 130. Also, in the data set on murine L 1210 leukemia [2], the “in vitro ID50” value is 0.16 µg/mL.
`CN(C)CCCNc1ccc(NCCCN(C)C)c2c1C(=O)c1cccnc1C2=O` [Compound 5c]: the “in vitro ID50” value in the data set with murine L 1210 leukemia [2] was 1.7 µg/mL.
As usually defined, the IC50 is the concentration that gives 50% inhibition. Low values mean greater potency in that assay, high ones weaker potency in that assay. Regarding `O=C1c2ccccc2C(=O)c2c(NCCNCCO)ccc(NCCNCCO)c21` [ametantrone, 1,4-bis{[2-(2-hydroxyethylamino)ethyl]amino]anthracene-9,10-dione], the “resistance index RI (ratio of the IC50 for the resistant cell line to the IC50 for the sensitive cell line)” value in the data set on Lovo/DX was found to be 101.2. In data set [3], the “less potent and cardiotoxic than mitoxantrone” value is given as “about 10 fold”. Besides, in data set [4], the IC50 was 0.33 ± 0.1 µg/mL (≈ 0.8 µM).
For the compound `CN(C)CCNc1ccc(NCCN(C)C)c2c1C(=O)c1cc[n+]([O-])cc1C2=O` [Compound 7a, 6,9-bis[N-(2-dimethylaminoethyl)amino]benzo[g]isoquinoline-5,10-dione-2-oxide], the IC50 in the data set with Lovo/DX (Homo sapiens, Lovo/DX resistant subline) worked out at 2.68 µg/mL (≈ 6.74 µM); in data set [4] it was 0.44 µg/mL (≈ 1.11 µM). Also, in the data set on Lovo/DX, the “resistance index RI (ratio of the IC50 for the resistant cell line to the IC50 for the sensitive cell line)” value was 6.1.
`CN(C)CCNc1ccc(NCCN(C)C)c2c1C(=O)c1ccccc1C2=O` [Compound 6a]: the “in vivo T/C” value in the data set with murine L 1210 leukemia [1] (Dose 30 mg/kg) was 150. The “in vitro ID50” value in the data set with murine L 1210 leukemia [2] is 0.08 µg/mL.
In the case of `O=C1c2c(O)ccc(O)c2C(=O)c2c(NCCNCCO)ccc(NCCNCCO)c21` [MITOX, 5,8-dihydroxy-1,4-bis([2-(2-hydroxyethylamino)ethyl]amino]anthracene-9,10-dione], the “T/C% (range)” value with P 388 MURINE LEUKEMIA (setting [5]) was 171(154-212) %; in the data set on P 388 MURINE LEUKEMIA (setting [6]), 185(167-217) %; in the data set on P 388 MURINE LEUKEMIA (setting [7]) it was 118(89-133) %; with MURINE LEUKEMIA L1210 (setting [8]), 208%; in the data set on MURINE LEUKEMIA L1210 (setting [9]) it was 216%. In addition, the “TOX (Number of toxic deaths/total number of mice)” value with P 388 MURINE LEUKEMIA (setting [5]) is reported as 0/50; with P 388 MURINE LEUKEMIA (setting [6]), 12/84; in the data set on P 388 MURINE LEUKEMIA (setting [7]), 20/24; with MURINE LEUKEMIA L1210 (setting [8]), 0/8; in the data set on MURINE LEUKEMIA L1210 (setting [9]), 0/8. Besides, the LTS in the data set with MURINE LEUKEMIA L1210 (setting [8]) and in the data set with MURINE LEUKEMIA L1210 (setting [9]) was 0/8 in each case.
In the case of `NCCNc1ccc(NCCN)c2c1C(=O)c1cc[n+]([O-])cc1C2=O.O=C(O)/C=C\C(=O)O.O=C(O)/C=C\C(=O)O` [Compound 7b, 6,9-bis[N-(2-aminoethyl)amino]benzo[g]isoquinoline-5,10-dione-2-oxide dimaleate], the “T/C% (range)” value in the data set on P 388 MURINE LEUKEMIA (setting [10]) is 122%; in the data set on P 388 MURINE LEUKEMIA (setting [11]), 133%; in the data set with P 388 MURINE LEUKEMIA (P 388, iv on days 1,4,7, Dose 40 mg/kg/day, dimaleate, 40 mg/kg/day) it was 144% and 166% and 194%; with P 388 MURINE LEUKEMIA (P 388, iv on days 1,4,7, Dose 60 mg/kg/day, dimaleate, 60 mg/kg/day), 200% and 225%; in the data set on P 388 MURINE LEUKEMIA (P 388, iv on days 1,4,7, Dose 80 mg/kg/day, dimaleate, 80 mg/kg/day), 211% and 262%; with MURINE LEUKEMIA L1210 (setting [12]) it was 266%. Also, in the data set with MURINE LEUKEMIA L1210 (setting [13]), the “T/C% (range)” value came to 333%. Moreover, the “TOX (Number of toxic deaths/total number of mice)” value is on record as 0/8 with P 388 MURINE LEUKEMIA (setting [10]); 0/8 in the data set with P 388 MURINE LEUKEMIA (setting [11]); 1/24 in the data set on P 388 MURINE LEUKEMIA (P 388, iv on days 1,4,7, Dose 40 mg/kg/day); 0/17 with P 388 MURINE LEUKEMIA (P 388, iv on days 1,4,7, Dose 60 mg/kg/day); 4/17 with P 388 MURINE LEUKEMIA (P 388, iv on days 1,4,7, Dose 80 mg/kg/day); 0/8 in the data set on MURINE LEUKEMIA L1210 (setting [12]). Also, the “TOX (Number of toxic deaths/total number of mice)” value in the data set on MURINE LEUKEMIA L1210 (setting [13]) was 0/10. For the same compound, the LTS in the data set on MURINE LEUKEMIA L1210 (setting [12]) is listed as 0/8; with MURINE LEUKEMIA L1210 (setting [13]) it was 0/10.
Turning to `CCN(CC)CCNc1ccc(NCCN(CC)CC)c2c1C(=O)c1ccccc1C2=O` [Compound 6b], in the data set with murine L 1210 leukemia [2], the “in vitro ID50” value is 0.30 µg/mL.
Regarding `COc1cccc2c1C(=O)c1c(O)c3c(c(O)c1C2=O)C[C@@](O)(C(=O)CO)C[C@@H]3O[C@H]1C[C@H](N)[C@H](O)[C@H](C)O1` [doxorubicin], the “resistance index RI (ratio of the IC50 for the resistant cell line to the IC50 for the sensitive cell line)” value with Lovo/DX is recorded as 142.7.
